Results reported in ChEMBL document CHEMBL4414608, “Secophragmalin-Type Limonoids from Trichilia connaroides: Isolation, Semisynthesis, and Their Cytotoxic Activities” (J Nat Prod, 2019).
Activity calls are given as the source filed them. No cut-off for these calls is given here.

Experiments:
[1] = system: A549; experiment: Cytotoxicity against human A549 cells assessed as cell growth inhibition measured after 24 hrs by MTT assay; assay type: functional, cell-based; conditions: A549, 24 h
[2] = system: HeLa; experiment: Cytotoxicity against human HeLa cells assessed as cell growth inhibition measured after 24 hrs by MTT assay; assay type: functional, cell-based
[3] = system: DU-145; experiment: Cytotoxicity against human DU145 cells assessed as cell growth inhibition measured after 24 hrs by MTT assay; assay type: functional, cell-based; conditions: DU-145, 24 h
[4] = system: COLO 205; experiment: Cytotoxicity against human COLO205 cells assessed as cell growth inhibition measured after 24 hrs by MTT assay; assay type: functional, cell-based; conditions: COLO 205, 24 h
[5] = system: SK-OV-3; experiment: Cytotoxicity against human SKOV3 cells assessed as cell growth inhibition measured after 24 hrs by MTT assay; assay type: functional, cell-based; conditions: SK-OV-3, 24 h
[6] = system: DU-145; experiment: Cell cycle arrest in human DU145 cells assessed as accumulation at G2/M phase at 4.8 uM measured after 24 hrs by RNase A/propidium iodide staining based flow cytometry analysis; assay type: functional
[7] = system: DU-145; experiment: Induction of apoptosis in human DU145 cells assessed as live cells at 4.8 uM measured after 24 hrs by Annexin-V/FITC and propidium iodide staining based flow cytometry (reference value: 95.62 %); assay type: functional
[8] = system: DU-145; experiment: Induction of apoptosis in human DU145 cells assessed as early apoptotic cells at 4.8 uM measured after 24 hrs by Annexin-V/FITC and propidium iodide staining based flow cytometry (reference value: 0.25 %); assay type: functional
[9] = system: DU-145; experiment: Induction of apoptosis in human DU145 cells assessed as late apoptotic cells at 4.8 uM measured after 24 hrs by Annexin-V/FITC and propidium iodide staining based flow cytometry (reference value: 1.49 %); assay type: functional
[10] = system: DU-145; experiment: Induction of apoptosis in human DU145 cells assessed as necrotic cells at 4.8 uM measured after 24 hrs by Annexin-V/FITC and propidium iodide staining based flow cytometry (reference value: 2.64 %); assay type: functional

Structure (SMILES)	IC50 [1]	IC50 [2]	IC50 [3]	IC50 [4]	IC50 [5]	Activity [6]	Activity [7]	Activity [8]	Activity [9]	Activity [10]
C/C=C(\C)C(=O)O[C@@H]1[C@]2(OC(=O)C(C)C)C=C3C4=CC(=O)O[C@@H](c5ccoc5)[C@]4(C)CC[C@@H]3[C@@]3(C)[C@H](C[C@]1(C)[C@H]3[C@@H](OC(=O)C(C)C)C(=O)OC)O2	> 100 µM	> 100 µM	> 100 µM	> 100 µM	> 100 µM					
C/C=C(\C)C(=O)O[C@@H]1C(=O)/C=C2/C3=CC(=O)O[C@@H](c4ccoc4)[C@]3(C)CC[C@@H]2[C@@]2(C)C(=O)C[C@]1(C)[C@@H]2[C@@H](O)C(=O)OC	> 100 µM	> 100 µM	10.5 µM	> 100 µM	> 100 µM					
C/C=C(\C)C(=O)O[C@@H]1[C@]2(OC(=O)C3CC3)C=C3C4=CC(=O)O[C@@H](c5ccoc5)[C@]4(C)CC[C@@H]3[C@@]3(C)[C@H](C[C@]1(C)[C@H]3[C@@H](O)C(=O)OC)O2	11.8 µM	> 100 µM	> 100 µM	> 100 µM	> 100 µM					
C/C=C(\C)C(=O)O[C@@H]1[C@]2(OC(=O)CC)C=C3C4=CC(=O)O[C@@H](c5ccoc5)[C@]4(C)CC[C@@H]3[C@@]3(C)[C@H](C[C@]1(C)[C@H]3[C@@H](OC(=O)CC)C(=O)OC)O2	> 100 µM	> 100 µM	> 100 µM	> 100 µM	> 100 µM					
COc1cccc2c1C(=O)c1c(O)c3c(c(O)c1C2=O)C[C@@](O)(C(=O)CO)C[C@@H]3O[C@H]1C[C@H](N)[C@H](O)[C@H](C)O1 [DOXORUBICIN]	5.3 µM	7.9 µM	4.8 µM	3.8 µM	3 µM	Active	84.42%	2.41%	10.77%	2.4%
C/C=C(\C)C(=O)O[C@H]1[C@]2(C)C[C@@H]3O[C@@]1(O)C=C1C4=CC(=O)O[C@@H](c5ccoc5)[C@]4(C)CC[C@@H]1[C@]3(C)[C@@H]2[C@@H](O)C(=O)OC	8.1 µM	> 100 µM	7.7 µM	> 100 µM	> 100 µM					
C/C=C(\C)C(=O)O[C@H]1[C@]2(C)C[C@@H]3O[C@@]1(O)C=C1C4=CC(=O)O[C@@H](c5ccoc5)[C@]4(C)CC[C@@H]1[C@]3(C)[C@@H]2[C@@H](OC(C)=O)C(=O)OC	> 100 µM	> 100 µM	> 100 µM	> 100 µM	> 100 µM					
